According to patent publication US9636418B2 (priority 2013, dated 2017):

Experiments:
Assay in all cases: cell-based
hNav1.7 = hNav1.7 (Homo sapiens, UniProt Q15858); format: cell-based; details: PatchXpress, tonic block; read-out: PX hNav1.7 Tonic IC50
hNav1.4 = hNav1.4 (Homo sapiens, UniProt P35499); details: for IC50: PatchXpress, tonic block, read-out: PX hNav1.4 Tonic IC50; for Nav1.4/Nav1.7: ratio of PX tonic IC50 values
hNav1.5 = hNav1.5 (Homo sapiens, UniProt Q14524); details: for IC50: PatchXpress, tonic block, read-out: PX hNav1.5 Tonic IC50

Chain of hNav1.7 (Q15858 whole entry): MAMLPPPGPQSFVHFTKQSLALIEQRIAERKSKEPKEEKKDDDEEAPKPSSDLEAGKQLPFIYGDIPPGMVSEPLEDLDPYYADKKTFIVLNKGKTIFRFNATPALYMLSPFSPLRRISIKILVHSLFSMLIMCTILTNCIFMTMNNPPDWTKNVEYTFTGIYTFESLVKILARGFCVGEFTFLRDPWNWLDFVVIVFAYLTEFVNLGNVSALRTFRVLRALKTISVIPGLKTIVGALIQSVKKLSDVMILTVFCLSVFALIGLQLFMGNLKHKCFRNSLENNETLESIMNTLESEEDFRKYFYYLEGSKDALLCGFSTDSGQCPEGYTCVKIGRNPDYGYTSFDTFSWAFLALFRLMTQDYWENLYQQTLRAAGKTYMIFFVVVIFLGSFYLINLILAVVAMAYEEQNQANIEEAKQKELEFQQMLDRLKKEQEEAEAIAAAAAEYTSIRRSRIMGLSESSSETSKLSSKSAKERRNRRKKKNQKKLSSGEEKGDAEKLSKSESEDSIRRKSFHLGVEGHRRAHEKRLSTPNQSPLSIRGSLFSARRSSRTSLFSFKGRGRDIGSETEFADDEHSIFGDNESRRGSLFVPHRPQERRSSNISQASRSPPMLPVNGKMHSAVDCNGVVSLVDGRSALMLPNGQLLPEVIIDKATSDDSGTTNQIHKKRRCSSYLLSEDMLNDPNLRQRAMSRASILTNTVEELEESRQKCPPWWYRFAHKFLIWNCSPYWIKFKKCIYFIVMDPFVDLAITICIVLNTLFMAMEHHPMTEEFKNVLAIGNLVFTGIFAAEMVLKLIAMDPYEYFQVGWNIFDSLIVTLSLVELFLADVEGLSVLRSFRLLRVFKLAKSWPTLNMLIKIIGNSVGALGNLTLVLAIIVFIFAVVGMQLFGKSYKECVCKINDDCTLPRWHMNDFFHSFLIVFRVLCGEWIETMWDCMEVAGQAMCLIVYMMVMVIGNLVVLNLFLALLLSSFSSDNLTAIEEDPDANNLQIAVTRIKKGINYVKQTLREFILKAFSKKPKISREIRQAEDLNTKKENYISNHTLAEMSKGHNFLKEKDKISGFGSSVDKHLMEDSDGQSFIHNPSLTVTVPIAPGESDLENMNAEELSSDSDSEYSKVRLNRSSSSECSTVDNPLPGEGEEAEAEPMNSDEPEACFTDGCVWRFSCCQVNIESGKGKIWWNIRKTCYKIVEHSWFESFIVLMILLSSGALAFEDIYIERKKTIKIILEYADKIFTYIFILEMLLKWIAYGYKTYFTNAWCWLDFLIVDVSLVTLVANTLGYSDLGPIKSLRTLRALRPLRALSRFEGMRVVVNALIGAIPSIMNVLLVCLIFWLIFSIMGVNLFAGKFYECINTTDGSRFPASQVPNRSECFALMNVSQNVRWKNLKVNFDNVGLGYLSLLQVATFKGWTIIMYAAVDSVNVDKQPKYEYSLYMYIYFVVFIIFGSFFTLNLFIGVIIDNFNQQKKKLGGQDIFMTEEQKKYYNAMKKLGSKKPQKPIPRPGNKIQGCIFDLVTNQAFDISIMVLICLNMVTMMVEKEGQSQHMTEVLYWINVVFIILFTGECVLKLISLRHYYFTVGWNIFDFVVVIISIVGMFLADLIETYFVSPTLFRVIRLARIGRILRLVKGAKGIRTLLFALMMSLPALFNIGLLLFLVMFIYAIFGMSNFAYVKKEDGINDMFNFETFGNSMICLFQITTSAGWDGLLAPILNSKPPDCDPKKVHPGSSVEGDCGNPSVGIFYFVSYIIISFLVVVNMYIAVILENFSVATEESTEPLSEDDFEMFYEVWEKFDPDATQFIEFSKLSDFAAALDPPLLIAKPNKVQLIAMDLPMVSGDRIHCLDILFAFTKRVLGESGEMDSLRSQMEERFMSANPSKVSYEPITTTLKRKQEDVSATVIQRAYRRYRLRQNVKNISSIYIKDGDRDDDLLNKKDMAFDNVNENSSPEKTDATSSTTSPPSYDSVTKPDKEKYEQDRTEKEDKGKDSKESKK
Chain of hNav1.4 (P35499 whole entry): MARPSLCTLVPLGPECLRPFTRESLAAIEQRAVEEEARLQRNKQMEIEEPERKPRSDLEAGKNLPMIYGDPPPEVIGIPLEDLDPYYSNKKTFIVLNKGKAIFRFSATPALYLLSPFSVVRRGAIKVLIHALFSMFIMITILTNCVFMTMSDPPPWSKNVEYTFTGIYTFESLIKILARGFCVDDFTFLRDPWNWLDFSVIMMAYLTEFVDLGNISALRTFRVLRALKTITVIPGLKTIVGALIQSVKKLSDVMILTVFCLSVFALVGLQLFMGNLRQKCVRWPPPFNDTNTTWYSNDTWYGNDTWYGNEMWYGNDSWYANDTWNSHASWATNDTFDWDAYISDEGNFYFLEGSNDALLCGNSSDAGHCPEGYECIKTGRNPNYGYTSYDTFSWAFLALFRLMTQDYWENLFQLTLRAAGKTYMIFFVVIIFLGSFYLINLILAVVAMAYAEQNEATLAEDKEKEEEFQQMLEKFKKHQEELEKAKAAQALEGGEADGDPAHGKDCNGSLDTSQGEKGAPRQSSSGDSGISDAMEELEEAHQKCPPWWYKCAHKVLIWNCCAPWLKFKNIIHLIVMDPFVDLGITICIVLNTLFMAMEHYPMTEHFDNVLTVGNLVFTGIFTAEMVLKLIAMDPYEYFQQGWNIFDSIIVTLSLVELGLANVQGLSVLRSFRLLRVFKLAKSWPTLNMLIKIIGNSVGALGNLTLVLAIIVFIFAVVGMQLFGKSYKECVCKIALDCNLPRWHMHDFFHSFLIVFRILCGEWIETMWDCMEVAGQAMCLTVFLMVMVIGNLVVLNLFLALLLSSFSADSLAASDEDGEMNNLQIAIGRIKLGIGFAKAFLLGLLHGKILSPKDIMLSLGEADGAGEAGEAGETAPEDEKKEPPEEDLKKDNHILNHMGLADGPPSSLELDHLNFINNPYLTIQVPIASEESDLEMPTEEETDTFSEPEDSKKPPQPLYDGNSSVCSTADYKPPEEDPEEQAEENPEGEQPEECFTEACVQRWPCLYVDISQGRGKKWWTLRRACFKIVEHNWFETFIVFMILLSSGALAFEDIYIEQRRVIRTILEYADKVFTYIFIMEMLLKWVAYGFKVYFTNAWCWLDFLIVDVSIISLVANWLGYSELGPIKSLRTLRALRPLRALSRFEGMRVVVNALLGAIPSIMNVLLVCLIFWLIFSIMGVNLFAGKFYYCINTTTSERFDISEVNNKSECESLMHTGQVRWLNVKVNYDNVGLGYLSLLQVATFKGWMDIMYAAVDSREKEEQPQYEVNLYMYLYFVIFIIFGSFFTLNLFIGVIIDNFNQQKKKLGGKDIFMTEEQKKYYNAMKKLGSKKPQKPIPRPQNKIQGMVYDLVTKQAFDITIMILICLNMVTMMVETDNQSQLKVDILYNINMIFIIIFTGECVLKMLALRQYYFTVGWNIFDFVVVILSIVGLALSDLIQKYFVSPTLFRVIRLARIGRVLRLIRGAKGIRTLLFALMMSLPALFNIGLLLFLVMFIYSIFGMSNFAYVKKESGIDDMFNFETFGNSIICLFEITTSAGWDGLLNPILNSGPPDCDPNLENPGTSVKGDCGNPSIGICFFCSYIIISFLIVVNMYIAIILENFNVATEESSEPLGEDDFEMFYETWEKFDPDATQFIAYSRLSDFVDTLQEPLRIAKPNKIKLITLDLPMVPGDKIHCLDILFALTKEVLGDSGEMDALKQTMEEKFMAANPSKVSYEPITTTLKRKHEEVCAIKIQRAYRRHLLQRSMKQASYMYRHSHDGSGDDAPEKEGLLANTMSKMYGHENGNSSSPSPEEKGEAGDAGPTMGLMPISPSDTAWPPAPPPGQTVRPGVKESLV

Structure (SMILES) | IC50 (hNav1.7) | IC50 (hNav1.4) | Nav1.4/Nav1.7 (hNav1.4) | IC50 (hNav1.5) | Nav1.5/Nav1.7 (hNav1.5; ratio of PX tonic IC50 values)
CCCC[C@@H]1NC(=O)[C@H](Cc2c[nH]c3ccccc23)NC(=O)[C@H](CCCCN)NC(=O)[C@H](CCC(N)=O)NC(=O)[C@@H](NC(=O)[C@@H](N)Cc2ccc(O)cc2)CSSC[C@@H]2NC(=O)[C@@H]3CSSC[C@@H](C(=O)N[C@@H](CCCNC(=N)N)C(=O)N[C@@H](CCCCN)C(=O)N[C@H](C(=O)N[C@@H](Cc4c[nH]c5ccccc45)C(N)=O)[C@@H](C)CC)NC(=O)[C@H](Cc4c[nH]c5ccccc45)NC(=O)[C@H](CC(C)C)NC(=O)[C@H](CCCCN)NC(=O)[C@H](CSSC[C@H](NC(=O)[C@H]([C@@H](C)O)NC(=O)[C@H](Cc4c[nH]c5ccccc45)NC1=O)C(=O)N[C@@H](CC(=O)O)C(=O)N[C@@H](CO)C(=O)N[C@@H](CCCCN)C(=O)N[C@@H](CCCNC(=N)N)C(=O)N[C@@H](CCCCN=[N+]=[N-])C(=O)N3)NC(=O)[C@H](CCC(=O)O)NC(=O)[C@H](CC(C)C)NC(=O)CNC(=O)[C@H](CCC(=O)O)NC2=O [compound 306] | 1.15 nM | 635 nM | 550 | 1.97 µM | –
CCCC[C@@H]1NC(=O)[C@H](Cc2c[nH]c3ccccc23)NC(=O)[C@H](CCCCN)NC(=O)[C@H](CCC(N)=O)NC(=O)[C@@H](NC(=O)[C@@H](N)Cc2ccc(O)cc2)CSSC[C@@H]2NC(=O)[C@@H]3CSSC[C@@H](C(=O)N[C@@H](CCCNC(=N)N)C(=O)N[C@@H](CCCCN)C(=O)N[C@H](C(=O)N[C@@H](Cc4c[nH]c5ccccc45)C(N)=O)[C@@H](C)CC)NC(=O)[C@H](Cc4c[nH]c5ccccc45)NC(=O)[C@H](CC(C)C)NC(=O)[C@H](CCCCN)NC(=O)[C@H](CSSC[C@H](NC(=O)[C@H]([C@@H](C)O)NC(=O)[C@H](Cc4c[nH]c5ccccc45)NC1=O)C(=O)N[C@@H](CC(=O)O)C(=O)N[C@@H](CO)C(=O)N[C@@H](CCCCN)C(=O)N[C@@H](CCCNC(=N)N)C(=O)N[C@@H](C)C(=O)N3)NC(=O)[C@H](CCC(=O)O)NC(=O)[C@H](CC(C)C)NC(=O)CNC(=O)[C@H](CCCCN=[N+]=[N-])NC2=O [compound 307] | 9.08 nM | 360 nM | 40 | 0.75 µM | 83
CCCC[C@@H]1NC(=O)[C@H](Cc2c[nH]c3ccccc23)NC(=O)[C@H](CCCCN)NC(=O)[C@H](CCC(N)=O)NC(=O)[C@@H](NC(=O)[C@H](Cc2ccc(O)cc2)NC(=O)[C@@H](N)CCN=[N+]=[N-])CSSC[C@@H]2NC(=O)[C@@H]3CSSC[C@@H](C(=O)N[C@@H](CCCNC(=N)N)C(=O)N[C@@H](CCCCN)C(=O)N[C@H](C(=O)N[C@@H](Cc4c[nH]c5ccccc45)C(N)=O)[C@@H](C)CC)NC(=O)[C@H](Cc4c[nH]c5ccccc45)NC(=O)[C@H](CC(C)C)NC(=O)[C@H](CCCCN)NC(=O)[C@H](CSSC[C@H](NC(=O)[C@H]([C@@H](C)O)NC(=O)[C@H](Cc4c[nH]c5ccccc45)NC1=O)C(=O)N[C@@H](CC(=O)O)C(=O)N[C@@H](CO)C(=O)N[C@@H](CCCCN)C(=O)N[C@@H](CCCNC(=N)N)C(=O)N[C@@H](C)C(=O)N3)NC(=O)[C@H](CCC(=O)O)NC(=O)[C@H](CC(C)C)NC(=O)CNC(=O)[C@H](CCC(=O)O)NC2=O [compound 308] | 1.12 nM | 1200 nM | – | 3.77 µM | –
CCCC[C@@H]1NC(=O)[C@H](Cc2c[nH]c3ccccc23)NC(=O)[C@H](CCCCN)NC(=O)[C@H](CCC(N)=O)NC(=O)[C@@H](NC(=O)[C@@H](N)CCN=[N+]=[N-])CSSC[C@@H]2NC(=O)[C@@H]3CSSC[C@@H](C(=O)N[C@@H](CCCNC(=N)N)C(=O)N[C@@H](CCCCN)C(=O)N[C@H](C(=O)N[C@@H](Cc4c[nH]c5ccccc45)C(N)=O)[C@@H](C)CC)NC(=O)[C@H](Cc4c[nH]c5ccccc45)NC(=O)[C@H](CC(C)C)NC(=O)[C@H](CCCCN)NC(=O)[C@H](CSSC[C@H](NC(=O)[C@H]([C@@H](C)O)NC(=O)[C@H](Cc4c[nH]c5ccccc45)NC1=O)C(=O)N[C@@H](CC(=O)O)C(=O)N[C@@H](CO)C(=O)N[C@@H](CCCCN)C(=O)N[C@@H](CCCNC(=N)N)C(=O)N[C@@H](C)C(=O)N3)NC(=O)[C@H](CCC(=O)O)NC(=O)[C@H](CC(C)C)NC(=O)CNC(=O)[C@H](CCC(=O)O)NC2=O [compound 309] | 3.21 nM | 767 nM | – | 2.03 µM | –
C#CC[C@H](N)C(=O)N[C@@H](Cc1ccc(O)cc1)C(=O)N[C@H]1CSSC[C@@H]2NC(=O)[C@@H]3CSSC[C@@H](C(=O)N[C@@H](CCCNC(=N)N)C(=O)N[C@@H](CCCCN)C(=O)N[C@@H](Cc4ccc(O)cc4)C(=O)N[C@H](C(N)=O)[C@@H](C)CC)NC(=O)[C@H](Cc4c[nH]c5ccccc45)NC(=O)[C@H](CC(C)C)NC(=O)[C@H](CCCCN)NC(=O)[C@H](CSSC[C@H](NC(=O)[C@H]([C@@H](C)O)NC(=O)[C@H](Cc4c[nH]c5ccccc45)NC(=O)[C@H](CCCC)NC(=O)[C@H](Cc4c[nH]c5ccccc45)NC(=O)[C@H](CCCCN)NC(=O)[C@H](CCC(N)=O)NC1=O)C(=O)N[C@@H](CC(=O)O)C(=O)N[C@@H](CO)C(=O)N[C@@H](CCCCN)C(=O)N[C@@H](CCCNC(=N)N)C(=O)N[C@@H](C)C(=O)N3)NC(=O)[C@H](CCC(=O)O)NC(=O)[C@H](CC(C)C)NC(=O)CNC(=O)[C@H](CCC(=O)O)NC2=O [compound 313] | 0.427 nM | 966 nM | – | 4.37 µM | –
C#CC[C@@H]1NC(=O)[C@H](CC(=O)O)NC(=O)[C@@H]2CSSC[C@@H]3NC(=O)[C@H](CCC(=O)O)NC(=O)[C@H](CC(C)C)NC(=O)CNC(=O)[C@H](CCC(=O)O)NC(=O)[C@H](CSSC[C@H](NC(=O)[C@@H](N)Cc4ccc(O)cc4)C(=O)N[C@@H](CCC(N)=O)C(=O)N[C@@H](CCCCN)C(=O)N[C@@H](Cc4c[nH]c5ccccc45)C(=O)N[C@@H](CCCC)C(=O)N[C@@H](Cc4c[nH]c5ccccc45)C(=O)N[C@@H]([C@@H](C)O)C(=O)N2)NC(=O)[C@H](CSSC[C@@H](C(=O)N[C@@H](CCCNC(=N)N)C(=O)N[C@@H](CCCCN)C(=O)N[C@@H](Cc2ccc(O)cc2)C(=O)N[C@H](C(N)=O)[C@@H](C)CC)NC(=O)[C@H](Cc2c[nH]c4ccccc24)NC(=O)[C@H](CC(C)C)NC(=O)[C@H](CCCCN)NC3=O)NC(=O)[C@H](C)NC(=O)[C@H](CCCNC(=N)N)NC(=O)[C@H](CCCCN)NC1=O [compound 315] | 1.28 nM | 825 nM | – | 2.46 µM | –
C#CC[C@@H]1NC(=O)[C@H](CCCNC(=N)N)NC(=O)[C@H](CCCCN)NC(=O)[C@H](CO)NC(=O)[C@H](CC(=O)O)NC(=O)[C@@H]2CSSC[C@@H]3NC(=O)[C@H](CCC(=O)O)NC(=O)[C@H](CC(C)C)NC(=O)CNC(=O)[C@H](CCC(=O)O)NC(=O)[C@H](CSSC[C@H](NC(=O)[C@@H](N)Cc4ccc(O)cc4)C(=O)N[C@@H](CCC(N)=O)C(=O)N[C@@H](CCCCN)C(=O)N[C@@H](Cc4c[nH]c5ccccc45)C(=O)N[C@@H](CCCC)C(=O)N[C@@H](Cc4c[nH]c5ccccc45)C(=O)N[C@@H]([C@@H](C)O)C(=O)N2)NC(=O)[C@H](CSSC[C@@H](C(=O)N[C@@H](CCCNC(=N)N)C(=O)N[C@@H](CCCCN)C(=O)N[C@@H](Cc2ccc(O)cc2)C(=O)N[C@H](C(N)=O)[C@@H](C)CC)NC(=O)[C@H](Cc2c[nH]c4ccccc24)NC(=O)[C@H](CC(C)C)NC(=O)[C@H](CCCCN)NC3=O)NC1=O [compound 316] | 1.76 nM | 707 nM | – | 3.69 µM | –
C#CC[C@@H]1NC(=O)[C@@H]2CSSC[C@H](NC(=O)[C@@H](N)Cc3ccc(O)cc3)C(=O)N[C@@H](CCC(N)=O)C(=O)N[C@@H](CCCCN)C(=O)N[C@@H](Cc3c[nH]c4ccccc34)C(=O)N[C@@H](CCCC)C(=O)N[C@@H](Cc3c[nH]c4ccccc34)C(=O)N[C@@H]([C@@H](C)O)C(=O)N[C@H]3CSSC[C@H](NC(=O)[C@H](CCC(=O)O)NC(=O)[C@H](CC(C)C)NC(=O)CNC1=O)C(=O)N[C@@H](CCCCN)C(=O)N[C@@H](CC(C)C)C(=O)N[C@@H](Cc1c[nH]c4ccccc14)C(=O)N[C@H](C(=O)N[C@@H](CCCNC(=N)N)C(=O)N[C@@H](CCCCN)C(=O)N[C@@H](Cc1ccc(O)cc1)C(=O)N[C@H](C(N)=O)[C@@H](C)CC)CSSC[C@H](NC(=O)[C@H](C)NC(=O)[C@H](CCCNC(=N)N)NC(=O)[C@H](CCCCN)NC(=O)[C@H](CO)NC(=O)[C@H](CC(=O)O)NC3=O)C(=O)N2 [compound 317] | 3.8 nM | 614 nM | – | 3.52 µM | –
C#CC[C@H](N)C(=O)N[C@@H](Cc1ccc(O)cc1)C(=O)N[C@H]1CSSC[C@@H]2NC(=O)[C@@H]3CSSC[C@@H](C(=O)N[C@@H](CCCNC(=N)N)C(=O)N[C@@H](CCCCN)C(=O)N[C@@H](CCC(=O)O)C(=O)N[C@H](C(N)=O)[C@@H](C)CC)NC(=O)[C@H](Cc4c[nH]c5ccccc45)NC(=O)[C@H](CC(C)C)NC(=O)[C@H](CCCCN)NC(=O)[C@H](CSSC[C@H](NC(=O)[C@H]([C@@H](C)O)NC(=O)[C@H](Cc4c[nH]c5ccccc45)NC(=O)[C@H](CCCC)NC(=O)[C@H](Cc4c[nH]c5ccccc45)NC(=O)[C@H](CCCCN)NC(=O)[C@H](CCC(N)=O)NC1=O)C(=O)N[C@@H](CC(=O)O)C(=O)N[C@@H](CO)C(=O)N[C@@H](CCCCN)C(=O)N[C@@H](CCCNC(=N)N)C(=O)N[C@@H](C)C(=O)N3)NC(=O)[C@H](CCCNC(=N)N)NC(=O)[C@H](CC(C)C)NC(=O)CNC(=O)[C@H](CCC(=O)O)NC2=O [compound 328] | 0.515 nM | 130 nM | – | 3.02 µM | –
C#CC[C@H](N)C(=O)N[C@H]1CSSC[C@@H]2NC(=O)[C@@H]3CSSC[C@@H](C(=O)N[C@@H](CCCNC(=N)N)C(=O)N[C@@H](CCCCN)C(=O)N[C@@H](CCC(=O)O)C(=O)N[C@H](C(N)=O)[C@@H](C)CC)NC(=O)[C@H](Cc4c[nH]c5ccccc45)NC(=O)[C@H](CC(C)C)NC(=O)[C@H](CCCCN)NC(=O)[C@H](CSSC[C@H](NC(=O)[C@H]([C@@H](C)O)NC(=O)[C@H](Cc4c[nH]c5ccccc45)NC(=O)[C@H](CCCC)NC(=O)[C@H](Cc4c[nH]c5ccccc45)NC(=O)[C@H](CCCCN)NC(=O)[C@H](CCC(N)=O)NC1=O)C(=O)N[C@@H](CC(=O)O)C(=O)N[C@@H](CO)C(=O)N[C@@H](CCCCN)C(=O)N[C@@H](CCCNC(=N)N)C(=O)N[C@@H](C)C(=O)N3)NC(=O)[C@H](CCCNC(=N)N)NC(=O)[C@H](CC(C)C)NC(=O)CNC(=O)[C@H](CCC(=O)O)NC2=O [compound 329] | 0.269 nM | 149 nM | – | 4.62 µM | –
